Results published in patent US11771736B2, “Composition comprising a therapeutic agent and a CXCR4 selective antagonist and methods for using the same” (Mainline Biosciences (Shanghai) Co., Ltd., priority 2017, dated 2023).
Numbered stars: 1 amine (or outer) side, 2 acyl side, 3 side chain; on linkers, the order of the positions; unused ones are H or OH. Bridge positions count the residues as written; N and C are the ends. Square brackets hold non-standard residues; d marks the D form. Peptide text beside a SMILES is read from it. * marks the point of attachment. 2Nal = N[C@@H](Cc1ccc2ccccc2c1)C(=O)O; oXylylene = c1ccc(C[*:2])c(C[*:1])c1; Lys(iPr) = CC(C)NCCCC[C@H](N)C(=O)O; Bz = O=C(c1ccccc1)*

Target: T1, Human chemokine receptor CXCR4 (Homo sapiens, UniProt P61073)
T1 construct: expressed in transfected cells; host or cells: Chem-1 cells (membranes)
Assay: Human CXCR4/125I-SDF-1α binding inhibition assay
Procedure: Non-specific binding was estimated in the presence of 30 nM SDF-1α.

T1 sequence (P61073 whole entry): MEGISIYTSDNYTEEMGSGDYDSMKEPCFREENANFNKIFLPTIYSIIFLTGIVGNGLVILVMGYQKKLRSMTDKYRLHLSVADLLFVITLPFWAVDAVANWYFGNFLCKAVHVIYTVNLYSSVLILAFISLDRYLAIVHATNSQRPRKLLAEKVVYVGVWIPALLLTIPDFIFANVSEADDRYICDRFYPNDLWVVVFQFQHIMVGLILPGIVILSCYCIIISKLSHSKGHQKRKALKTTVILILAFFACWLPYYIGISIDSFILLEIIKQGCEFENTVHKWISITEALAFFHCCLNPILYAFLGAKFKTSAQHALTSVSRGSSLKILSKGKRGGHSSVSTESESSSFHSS

## CC(C)NCCCC[C@H](NC(=O)[C@@H]1CSCc2ccccc2CSC[C@H](NC(=O)c2ccccc2)C(=O)N[C@@H](Cc2ccc(O)cc2)C(=O)N[C@@H](CCCCNC(C)C)C(=O)N[C@H](CCCNC(=N)N)C(=O)N[C@@H](Cc2ccc3ccccc3c2)C(=O)NCC(=O)N1)C(=O)NCC(N)=O [Example 20] (Bz-CY[Lys(iPr)][dR][2Nal]GC[Lys(iPr)]G-NH2; linker 1-7 via oXylylene)
  IC50: 1.3 nM
  Kb: 0.39 nM
